Experimental data as given in PubChem BioAssay AID602210 (Sanford-Burnham Center for Chemical Genomics, 2012).
Calls of active or inactive are those of the source. How the calls were made is not given here.

Assay: H9c2 cardiomyoblast viability modulators under 2-DG – cell-based, ATPlite luminescence, rat, set 2, myocardial damage modulator project, dose response (AID 602210)
Conditions: H9c2 rat cardiomyoblasts, 2-deoxyglucose-induced death, 2 h

Row | SMILES | IC50
1 | COc1cc(/C=C(\C#N)C(=O)Nc2ccccc2)ccc1OCCN1CCOCC1 | > 79 µM (inactive)
2 | CC1Nc2ncnc(N3CCN(c4ccccc4)CC3)c2N(Cc2ccc(Cl)cc2)C1=O (stereo unspecified) | 21.4 µM (inactive)
3 | Cc1ccc(C(=O)Nc2cccc(C(F)(F)F)c2)cc1NC(=O)c1csc(-c2ccncc2)n1 | > 79 µM (inactive)
4 | CCCNC(=O)c1ccc(N2CCC3(CC2)CC(c2ccccc2)=NO3)c(NC(=O)c2ccco2)c1 | 8.75 µM
5 | CC(=O)Nc1cccc(-c2cc(NC(C)=O)c3ncc(-c4ccccc4)n3c2)c1 | 12.2 µM (inactive)
6 | COC(=O)c1cccc(S(=O)(=O)N(Cc2ccco2)Cc2cc3cc(OC)ccc3[nH]c2=O)c1 | 11.6 µM (inactive)
7 | COc1ccc(-c2ccc3c(c2)S(=O)(=O)c2cccc(C(=O)N4CCN(c5c(Cl)cncc5Cl)CC4)c2C3=O)cc1OC | 8.36 µM
8 | COc1cc(NC(=O)c2c(OC)cccc2OC)ccc1NC(=O)c1cc2ccccc2o1 | 13.4 µM (inactive)
9 | CC12C=CC(=O)CC1CCC1C2CCC2(C)C(O)C(O)CC12 (stereo unspecified) | 21 µM (inactive)
10 | O=C(C[C@H]1C/C=C\CC[C@H](Cc2ccc(F)cc2)C(=O)O[C@H](c2ccccc2)CNC1=O)N[C@H](CO)Cc1ccccc1 | 7.55 µM
11 | O=CNc1cc(-c2ccc(C(=O)NC3CC3)cc2)cn2c(-c3ccccc3)cnc12 | 16.1 µM (inactive)
12 | COc1ccc(-n2cc(-c3ccccc3)c3c(N4CCOCC4)ncnc32)cc1 | 6.04 µM
13 | COc1ccc(C(=O)COC(=O)C(CCCCN2C(=O)C3C4C=CC(C4)C3C2=O)N2C(=O)C3C4C=CC(C4)C3C2=O)cc1 (stereo unspecified) | 11.8 µM (inactive)
14 | COCCn1c(=NC(=O)c2nc3ccccc3s2)sc2cc(S(C)(=O)=O)ccc21 | > 79 µM (inactive)
15 | Nc1c(C(=O)N/N=C/c2cccnc2)oc2nc(-c3ccco3)cc(-c3ccco3)c12 | 1.63 µM
16 | O=[N+]([O-])c1ccc(Nc2nc(N/N=C/c3cccc(F)c3)nc(N3CCCC3)n2)cc1 | 10.2 µM (inactive)
17 | CCc1nnc(NC(=O)CCC(=O)N2CCN(C3c4ccccc4-c4ccccc43)CC2)s1 | 29.1 µM (inactive)
18 | O=C(c1cc2nc(-c3ccccc3)cc(-c3ccccc3)n2n1)N1CCN(C(=O)c2ccco2)CC1 | 10.3 µM (inactive)
19 | CC(=O)Nc1cc(-c2cccc(C(=O)N(C)C)c2)cn2c(-c3ccc(C(C)=O)cc3)cnc12 | 27.1 µM (inactive)
20 | Cc1ccc(S(=O)(=O)N2CCN(C(=O)c3cc(=O)[nH]c4ccccc34)CC2)c(C)c1 | 23 µM (inactive)
21 | COc1cc(C(=O)N/N=C/c2sc(N3CCOCC3)nc2-c2ccccc2)cc(OC)c1OC | 30.9 µM (inactive)
22 | Cn1c(=O)[nH]c(=O)c2c1nc(Br)n2CC(O)COc1ccc(Cl)cc1 (stereo unspecified) | 22.8 µM (inactive)

Row | SMILES | IC50
23 | COCCn1ccc2c(OCC(=O)Nc3ccccc3OC)cccc2c1=O | 22.1 µM (inactive)
24 | O=C(Nc1nc(-c2cc(F)ccc2F)cs1)C1=NN(c2ccccc2)C(=O)CC1 | 14.2 µM (inactive)
25 | CCC(=O)Nc1cccc(-c2nnc(-c3cccc(NC(=O)CC)c3)o2)c1 | > 79 µM (inactive)
26 | COc1ccc(-c2cc(C(F)(F)F)n3nc(C(=O)N4CCN(C(=O)c5ccco5)CC4)cc3n2)cc1 | 3.79 µM
27 | COc1cccc(NC(=O)c2oc3ccc(S(=O)(=O)N4CCOCC4)cc3c2C)c1 | 19.5 µM (inactive)
28 | C=CCn1cnc2c(c1=O)c1nc3ccccc3nc1n2/N=C/c1cc(OC)c(OC)c(OC)c1 | 2.64 µM
29 | Cc1nc2ccccc2c2c(N)c3ccccc3n12 | 32.1 µM (inactive)
30 | CCOC(=O)c1cc(-c2nnc(-c3cc(OC)c(OC)c(OC)c3)o2)c(C)nc1C | 3.44 µM
31 | COc1ccc(/C=N/NC(=O)c2cc(-c3ccc4c(c3)OCO4)n[nH]2)cc1OC | 9.02 µM
32 | COc1ccc(-c2csc(NC(=O)CCCc3nc4ccccc4c(=O)[nH]3)n2)cc1OC | 23.3 µM (inactive)
33 | CCOc1cccc(Nc2cc3n(c(=O)n2)CCc2cc(OC)c(OC)cc2-3)c1 | 28 µM (inactive)
34 | CCN(C[C@H]1N[C@@](C)(C(=O)OC)[C@H]2C(=O)N(Cc3ccccc3)C(=O)[C@@H]12)C(=O)c1ccc(C(C)(C)C)cc1 | 17.9 µM (inactive)
35 | COc1ccc(-c2cc(C(=O)N(C)Cc3nc4ccccc4c(=O)[nH]3)c3ccccc3n2)cc1OC | 10.3 µM (inactive)
36 | O=S(=O)(c1ccccc1)N1CCN(c2nc(-c3cccnc3)nc3ccccc23)CC1 | 12 µM (inactive)
37 | COc1ccccc1N1CCN(C(=O)c2ccc3nc(-c4ccco4)c(-c4ccco4)nc3c2)CC1 | 14 µM (inactive)
38 | CCCCCCn1c(C)nc2c(c1=O)c1nc3ccccc3nc1n2/N=C/c1ccco1 | 11.2 µM (inactive)
39 | COc1ccccc1-c1cc(NC=O)c2ncc(-c3cccc(C(C)=O)c3)n2c1 | > 79 µM (inactive)
40 | S=C(Nc1ccc(N2CCOCC2)cc1)Nc1ccc2nc(-c3ccco3)c(-c3ccco3)nc2c1 | 11.3 µM (inactive)
41 | CC(=O)c1cccc(-c2cnc3c(NC=O)cc(-c4ccc(F)cc4)cn23)c1 | > 79 µM (inactive)
42 | COc1cccc(Nc2nc(-c3sc(NC(=O)c4ccco4)nc3C)cs2)c1 | 9.04 µM
43 | Cn1c(=O)c2[nH]c(NN=Cc3ccc(Br)cc3)nc2n(C)c1=O | 10.6 µM (inactive)
44 | C=CC[C@@H](CC(=O)N[C@H](CO)Cc1ccccc1)C(=O)N[C@@H](COC(=O)[C@@H](CC=C)CC(=O)OC(C)(C)C)Cc1ccccc1 | 45.4 µM (inactive)

Row | SMILES | IC50
45 | CCN(CC)c1ccc(C2C(C(=O)OC(C)C)C(=O)CC(C)(O)C2C(=O)OC(C)C)cc1 (stereo unspecified) | 20.5 µM (inactive)
46 | O=C(Nc1nc(-c2ccccn2)cs1)c1ccc(-c2ccccc2F)o1 | > 79 µM (inactive)
47 | O=C(NCC(=O)N(Cc1cccs1)C(C(=O)NC1CCCC1)c1ccco1)c1cccs1 (stereo unspecified) | 24.5 µM (inactive)
48 | CCOC(=O)C1=C(C)NC(C)=C(C(=O)OCC)C1C(=O)OCC(=O)NC(C)C | 25.1 µM (inactive)
49 | NC(=O)c1cccc(-c2coc3c(C(=O)NCCc4ccccc4)cccc23)c1 | 13.3 µM (inactive)
50 | CC(C)OCCCNC(=O)CCC(=O)NNc1nc2ccccc2c2nc(-c3ccccc3)nn12 | 22.2 µM (inactive)
51 | CCOC(=O)c1c(C)[nH]c(O)c1C=Nc1ccc(Cl)cc1 | 46.7 µM (inactive)
52 | COc1ccccc1NC(=O)c1cc(-c2cc(OC)c(OC)c(OC)c2)nc2ccccc12 | 8.68 µM
53 | O=C1N[C@H](Cc2ccccc2)COC(=O)[C@@H](Cc2ccc(F)cc2)C/C=C\C[C@H]1CC(=O)N(CCO)Cc1ccccc1 | 19.3 µM (inactive)
54 | CC(=O)Nc1cc(-c2cccc(NS(C)(=O)=O)c2)cn2c(-c3cccc(C(C)=O)c3)cnc12 | 16.2 µM (inactive)
55 | COc1cc2nc(C3CCC3)nc(N3CCN(c4ccccn4)CC3)c2cc1OC | > 79 µM (inactive)
56 | COc1cc(/C=C(\C#N)C(=O)Nc2ccccc2F)ccc1OCCN1CCOCC1 | 41.2 µM (inactive)
57 | CC1CN(c2nn3c(=O)c4ccccc4nc3c3ccccc23)CC(C)O1 (stereo unspecified) | > 79 µM (inactive)
58 | CCOc1ccc2ccccc2c1C(=O)N[C@@H]1C(=O)N2[C@@H]1SC(C)(C)[C@@H]2C(=O)O | 36.1 µM (inactive)
59 | COc1cc(NC(=O)c2ccco2)c(C(=O)OCC(=O)c2c[nH]c3ccccc23)cc1OC | 6.43 µM
60 | CC1(C)CC(=O)C2=C(C1)N(CCN1CCOCC1)C1=C(C(=O)CC(C)(C)C1)C2c1ccc(Cl)cc1 | 39.1 µM (inactive)
61 | CC1Nc2ncnc(N3CCN(c4ccccc4)CC3)c2N(Cc2ccc(Br)cc2)C1=O (stereo unspecified) | > 79 µM (inactive)
62 | O=C1NC(Cc2ccc(O)cc2)c2nc3ccc(F)cc3c(=O)n2-c2cc3ccccc3cc21 (stereo unspecified) | 11.1 µM (inactive)
63 | COc1ccc(C(C(=O)NCc2ccccc2)N(Cc2ccco2)C(=O)c2snc(C(N)=O)c2N)cc1 (stereo unspecified) | 6.17 µM
64 | CC(C)(C)OC(=O)N1CCC(NC(=O)c2nc[nH]c2C(=O)NCC(=O)OCc2ccccc2)CC1 | 4.3 µM
65 | O=C(Nc1cccnc1)c1sc(Nc2ccccc2)nc1-c1ccccc1 | > 79 µM (inactive)
66 | COc1cc(/C=C/c2nc(-c3ccccc3O)n[nH]2)cc(OC)c1OC | > 79 µM (inactive)

Row | SMILES | IC50
67 | CC(=O)Nc1ccc(NS(=O)(=O)c2cc(-c3n[nH]c(=O)c4ccccc34)ccc2C)cc1 | 44 µM (inactive)
68 | CC(C)(C)OC(=O)C[C@H]1C/C=C\C[C@H](CC(=O)N[C@H](CO)Cc2ccccc2)C(=O)N[C@H](Cc2ccccc2)COC1=O | 59.9 µM (inactive)
69 | COc1cc(-c2nnc(-c3cc(-c4ccccc4)nc4ccccc34)o2)cc(OC)c1OC | 7.22 µM
70 | COc1cc(-c2cc(C(=O)OCC(=O)NC3CC3)c3ccccc3n2)cc(OC)c1OC | 13.2 µM (inactive)
71 | CCN(CC)C(=O)c1ccc(-c2nnc(Nc3ccc(O)cc3)c3ccccc23)cc1 | 44.2 µM (inactive)
72 | C[C@@H]1CN([C@@H](C)CO)C(=O)c2cc(NC(=O)Nc3ccccc3)ccc2O[C@H]1CN(C)C(=O)Nc1cccc2ccccc12 | 15 µM (inactive)
73 | CC(=O)Nc1cc(-c2ccc(C(=O)N3CCOCC3)cc2)cn2c(-c3ccc(C(C)=O)cc3)cnc12 | 27.1 µM (inactive)
74 | Brc1ccc(-c2nn3c(-c4ccccn4)nnc3s2)o1 | 42.3 µM (inactive)
75 | CCOC(=O)C1CCN(c2cc3c(cc2NC(=O)c2ccccc2)n(C)c(=O)n3C)CC1 | 10 µM
76 | CC(C)(C)NC(=O)c1cccc(NC(=O)c2ccc(NC(=O)c3ccco3)cc2)c1 | 18.9 µM (inactive)
77 | COCCCNC(=O)/C(C#N)=C1\N=C(NC(=O)c2cccs2)c2ccccc21 | > 79 µM (inactive)
78 | COc1cc2c(C#CCCCO)c(-c3ccsc3)oc(=O)c2cc1OC | 5.66 µM
79 | CC(C(=O)NC1CCCC1)N(C(=O)Cn1nnc(-c2ccc(F)cc2)n1)c1ccccc1F (stereo unspecified) | 11.3 µM (inactive)
80 | COc1cc(/C=N/NC(=O)c2ccccc2)ccc1OS(=O)(=O)c1ccccc1 | 13.5 µM (inactive)
81 | COCCCN(Cc1ccco1)C(=O)Cn1ncc2c([nH]c3ccccc32)c1=O | 25.5 µM (inactive)
82 | COc1ccc(-n2c(/C=C/c3ccc(O)c(OC)c3)nc3ccccc3c2=O)cc1 | 8.14 µM
83 | Cc1ccc2nsnc2c1S(=O)(=O)N(Cc1ccco1)Cc1cc2cccc(C)c2[nH]c1=O | > 79 µM (inactive)
84 | O=C(CSc1nnc(-c2ccccc2)n1Cc1ccccc1)NNC(=O)c1ccccc1O | > 79 µM (inactive)
85 | COc1ccnc(Oc2ccccc2)c1C(=O)N/C=N/OCc1ccc(F)cc1Cl | 8.39 µM
86 | CC1(C)Cc2c(c(N3CCOCC3)nc3sc4c(NN)ncnc4c23)CS1 | > 79 µM (inactive)
